From PubChem BioAssay (NCI)
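Interpolation was linear, between the two tested concentrations surrounding the appropriate level; five concentrations were tested over 48 hours in 96-well plates. GI50 marks 50% less growth. The concentration for full growth arrest is given as TGI.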

Experiments:
Assay in all cases: NCI anticancer screen, dose series, 48 h
786-0 renal = system: 786-0 renal
A549 NSCLC = system: A549 NSCLC
CCRF-CEM leukemia = system: CCRF-CEM leukemia
COLO 205 colon = system: COLO 205 colon
EKVX NSCLC = system: EKVX NSCLC
HOP-62 NSCLC = system: HOP-62 NSCLC
MALME-3M melanoma = system: MALME-3M melanoma
MCF7 breast = system: MCF7 breast
OVCAR-5 ovarian = system: OVCAR-5 ovarian
SN12C renal = system: SN12C renal

Row | Structure (SMILES) | GI50 (786-0 renal) | TGI (786-0 renal) | GI50 (A549 NSCLC) | TGI (A549 NSCLC) | GI50 (CCRF-CEM leukemia) | TGI (CCRF-CEM leukemia) | GI50 (COLO 205 colon) | TGI (COLO 205 colon) | GI50 (EKVX NSCLC) | TGI (EKVX NSCLC) | GI50 (HOP-62 NSCLC) | TGI (HOP-62 NSCLC) | GI50 (MALME-3M melanoma) | TGI (MALME-3M melanoma) | GI50 (MCF7 breast) | TGI (MCF7 breast) | GI50 (OVCAR-5 ovarian) | TGI (OVCAR-5 ovarian) | GI50 (SN12C renal) | TGI (SN12C renal)
1 | COc1ccc(-c2cc(-c3nnc(SCC(=O)Nc4ccc(C(C)=O)cc4)o3)c3ccccc3n2)cc1 | 1.94 µM | 4.95 µM | > 100 µM | > 100 µM | > 100 µM | > 100 µM | > 100 µM | > 100 µM | > 100 µM | > 100 µM | 15.7 µM | 58.6 µM | 10.6 µM | 91.8 µM | > 100 µM | > 100 µM | > 100 µM | > 100 µM | > 100 µM | > 100 µM
2 | N#C[C@H]1Nc2ccccc2[C@@H](O)C1O (stereo not given in full) | – | > 100 µM | – | > 100 µM | – | > 100 µM | – | > 100 µM | – | > 100 µM | – | > 100 µM | – | > 100 µM | – | > 100 µM | – | > 100 µM | – | > 100 µM
3 | O=[N+]([O-])c1ccc(N=Nc2c(O)[nH]c3ccccc23)cc1 | – | 61.7 µM | – | > 100 µM | – | > 80.1 µM | – | > 100 µM | – | > 72.1 µM | – | 34 µM | – | 45.2 µM | – | > 100 µM | – | > 63.1 µM | – | > 100 µM
4 | CCC(=O)c1ccc2c(c1)N(CCCN1CCN(CCO)CC1)c1ccccc1S2 | 13.2 µM | 26.9 µM | 16.2 µM | 32.1 µM | 9.67 µM | 27.9 µM | 12.1 µM | 26.5 µM | 13.1 µM | 28.1 µM | 16.2 µM | 30.3 µM | 8.85 µM | 26.1 µM | 12.4 µM | 26.9 µM | 15.7 µM | 31.9 µM | 16.3 µM | 33 µM
5 | COc1cc(/C=C2\C(=O)Nc3ccccc32)cc(OC)c1OC | 23.2 µM | > 100 µM | 20.3 µM | > 100 µM | 8.82 µM | > 100 µM | 14.5 µM | 47.9 µM | 18.8 µM | > 100 µM | 22.2 µM | 62.3 µM | 67 µM | > 100 µM | 19.9 µM | > 100 µM | 29.2 µM | 76.2 µM | 20.7 µM | > 100 µM
6 | COc1ccc2c(c1)[C@@]1(C)CCC3c4ccc(O)cc4CCC3C1C2 (stereo not given in full) | 15.3 µM | 29.2 µM | 12.6 µM | 32.2 µM | 12.8 µM | 45.8 µM | 14.7 µM | 31 µM | 17.6 µM | 33.2 µM | 22.5 µM | 37.2 µM | 18.7 µM | 34.8 µM | 15.1 µM | 30.8 µM | 19 µM | 33.1 µM | 16.8 µM | 32 µM
7 | COc1cc2ncn(-c3cc(OCc4ccccc4S(C)(=O)=O)c(C#N)s3)c2cc1OC | > 25 µM | > 25 µM | > 25 µM | > 25 µM | > 25 µM | > 25 µM | > 25 µM | > 25 µM | > 25 µM | > 25 µM | > 10.8 µM | > 20.8 µM | > 25 µM | > 25 µM | > 25 µM | > 25 µM | > 25 µM | > 25 µM | > 25 µM | > 25 µM
8 | CO/C(=N\N=C\c1cccc(C(F)(F)F)c1)c1ccncc1 | 8.71 µM | 24.8 µM | 15.5 µM | > 100 µM | 3.71 µM | 84.1 µM | – | 39.6 µM | – | 77.3 µM | 13.2 µM | > 100 µM | 9.42 µM | > 100 µM | 7.33 µM | > 100 µM | – | > 100 µM | 16.7 µM | > 100 µM
9 | CN(C)S(=O)(=O)c1ccc(Nc2ccc(O)c3c2C(=O)c2c([N+](=O)[O-])ccc(O)c2C3=O)cc1 | – | > 100 µM | – | > 100 µM | – | 44.9 µM | – | > 100 µM | – | > 100 µM | – | > 100 µM | – | > 100 µM | – | > 100 µM | – | > 100 µM | – | > 100 µM
10 | COc1ccc2c(c1)C(=O)c1c-2n(CCCN2CCOCC2)c(=O)c2cc([N+](=O)[O-])ccc12 | < 0.01 µM | – | < 0.01 µM | 3.01 µM | < 0.01 µM | – | < 0.0111 µM | > 45.4 µM | 0.068 µM | 12 µM | < 0.01 µM | 0.364 µM | < 0.0117 µM | 0.779 µM | < 0.01 µM | > 100 µM | < 0.01 µM | 0.889 µM | < 0.01 µM | 19.4 µM
11 | O=C1CC/C(=C\COc2ccc3ccc(=O)oc3c2)O1 | 2.89 µM | 15.9 µM | 24.1 µM | > 100 µM | 2.42 µM | 13.6 µM | 3.21 µM | 17.5 µM | 16.7 µM | 46.4 µM | 17.6 µM | 38.2 µM | 3.47 µM | 24.4 µM | 3.61 µM | 33.8 µM | 17.3 µM | 34.8 µM | 10.3 µM | 28.8 µM
12 | COc1ccc(-n2c(C)nc3c(c(C)nn3-c3ccccc3)c2=O)cc1 | 0.0654 µM | > 100 µM | 0.107 µM | > 100 µM | 0.057 µM | > 100 µM | 0.12 µM | 1.93 µM | 0.144 µM | > 100 µM | 0.0789 µM | > 100 µM | 15.9 µM | > 100 µM | 0.036 µM | > 100 µM | 0.298 µM | > 100 µM | 0.442 µM | > 100 µM
